{"source": "patent US20200308170A1", "about": "“KRAS G12C INHIBITORS” (Mirati Therapeutics, Inc., priority 2017, published 2020)"}
{"molecular_target": "T1, KRas G12C (Homo sapiens, UniProt P01116, C118S/C51S/C80L/G12C)", "T1 construct": "GDP-loaded K-Ras (1-169) G12C, C51S, C80L, C118S", "assay": "KRas G12C Modification Assay (LCMS detection of covalent adduct)", "assay_type": "binding", "conditions": "5 μM concentration for 3 hours; LC/MS of intact protein; higher POC = higher degree of modification", "procedure": "A 10 μL aliquot of each protein solution was then transferred to a 384 well microtiter plate. Initial compound stocks were generated at fifty times their desired final assay concentration in DMSO.\nExemplary compounds of Formula (II) were diluted 25-fold into K-Ras Assay Buffer to a final of two times their final concentration. A 10 μL aliquot of each diluted compound solution was then added to each of the protein solutions in the microtiter plate to initiate reaction. […] At each time point, the reactions were quenched with 20 μL of a 25 mM acetic acid solution. […] Once all reactions were quenched, the plates were heat sealed and the samples were injected into a LC/MS system for data acquisition.\nSamples were injected in their liquid phase onto a C-3 reverse phase column to remove assay buffer and prepare the samples for mass spectrometer. The proteins were eluted from the column using an acetonitrile gradient and fed directly into the mass analyzer. Initial raw data analysis took place in Agilent MassHunter software immediately post data acquisition.\nRaw data analysis of the intact protein was exclusively a deconvolution of the multiple charge states of each protein in solution using a maximum entropy deconvolution provided in Mass Hunter. To minimize complexity, only the data over limited mass ranges were considered for analysis, with a minimum of one Dalton mass step intervals. The heights of all masses identified during raw data analysis were exported to be further analyzed in Spotfire® data analysis software.\nFinal data analysis was a multistep process in the Spotfire® data analysis software package. Briefly, each protein mass was calculated as a percent of the total signal of that sample, that percentage was then normalized to the percentage of signal of the protein in the absence of reactive compounds. Those normalized signals were reported as normalized percent of control (POC). […] Key: “A”≤25% POC; “B”>25% POC−≤50% POC; “C”>50% POC and ND=not determined."}
{"smiles": "Cc1cccc(N2CCc3c(nc(OC[C@@H]4CCCN4C)nc3N3CCN(C(=O)/C=C/CN4CCC(F)C4)[C@@H](CC#N)C3)C2)c1C", "note": "(stereo partly drawn) [Example 5, 2-[(2S)-4-[7-(2,3-dimethylphenyl)-2-[[(2S)-1-methylpyrrolidin-2-yl]methoxy]-6,8-dihydro-5H-pyrido[3,4-d]pyrimidin-4-yl]-1-[(E)-4-(3-fluoropyrrolidin-1-yl)but-2-enoyl]piperazin-2-yl]acetonitrile]", "POC (normalized percent of control; degree of covalent modification of KRas G12C)": "C (“C”>50% POC)"}
{"smiles": "C=C(NC(C)=O)C(=O)N1CCN(c2nc(OC[C@@H]3CCCN3C)nc3c2CCN(c2cccc4cccc(C)c24)C3)C[C@@H]1CC#N", "note": "[Example 54, N-(3-((S)-2-(cyanomethyl)-4-(7-(8-methylnaphthalen-1-yl)-2-(((S)-1-methylpyrrolidin-2-yl)methoxy)-5,6,7,8-tetrahydropyrido[3,4-d]pyrimidin-4-yl)piperazin-1-yl)-3-oxoprop-1-en-2-yl)acetamide]", "POC (normalized percent of control; degree of covalent modification of KRas G12C)": "B (“B”>25% POC−≤50% POC)"}
{"smiles": "COC/C=C/C(=O)N1CCN(c2nc(OC[C@@H]3CCCN3C)nc3c2CCN(c2cccc4cccc(C)c24)C3)C[C@@H]1CC#N", "note": "[Example 40, 2-((S)-1-((E)-4-methoxybut-2-enoyl)-4-(7-(8-methylnaphthalen-1-yl)-2-(((S)-1-methylpyrrolidin-2-yl)methoxy)-5,6,7,8-tetrahydropyrido[3,4-d]pyrimidin-4-yl)piperazin-2-yl)acetonitrile]", "POC (normalized percent of control; degree of covalent modification of KRas G12C)": "C (“C”>50% POC)"}
{"smiles": "Cc1cccc(N2CCc3c(nc(OC[C@@H]4CCCN4C)nc3N3CCN(C(=O)/C=C/C(F)(F)F)[C@@H](CC#N)C3)C2)c1C", "note": "[Example 15, 2-((S)-4-(7-(2,3-dimethylphenyl)-2-(((S)-1-methylpyrrolidin-2-yl)methoxy)-5,6,7,8-tetrahydropyrido[3,4-d]pyrimidin-4-yl)-1-((E)-4,4,4-trifluorobut-2-enoyl)piperazin-2-yl)acetonitrile]", "POC (normalized percent of control; degree of covalent modification of KRas G12C)": "C (“C”>50% POC)"}
{"smiles": "Cc1cccc2cccc(N3CCc4c(nc(OC[C@@H]5CCCN5C)nc4N4CCN(C(=O)/C=C/C(=O)N(C)C)[C@@H](CC#N)C4)C3)c12", "note": "[Example 28, (E)-4-((S)-2-(cyanomethyl)-4-(7-(8-methylnaphthalen-1-yl)-2-(((S)-1-methylpyrrolidin-2-yl)methoxy)-5,6,7,8-tetrahydropyrido[3,4-d]pyrimidin-4-yl)piperazin-1-yl)-N,N-dimethyl-4-oxobut-2-enamide]", "POC (normalized percent of control; degree of covalent modification of KRas G12C)": "C (“C”>50% POC)"}
{"smiles": "CN(C)C/C=C(/F)C(=O)N1CCN(c2nc(OC[C@@H]3CCCN3C)nc3c2CCN(c2cccc4cccc(Cl)c24)C3)C[C@@H]1CC#N", "note": "[Example 32, 2-[(2S)-4-[7-(8-chloro-1-naphthyl)-2-[[(2S)-1-methylpyrrolidin-2-yl]methoxy]-6,8-dihydro-5H-pyrido[3,4-d]pyrimidin-4-yl]-1-[(E)-4-(dimethylamino)-2-fluoro-but-2-enoyl]piperazin-2-yl]acetonitrile]", "POC (normalized percent of control; degree of covalent modification of KRas G12C)": "C (“C”>50% POC)"}
{"smiles": "[2H]C([2H])=C([2H])C(=O)N1CCN(c2nc(OC[C@@H]3CCCN3C)nc3c2CCN(c2cccc4ccccc24)C3)C[C@@H]1CC#N", "note": "[Example 4, 2-[(2S)-4-[2-[[(2S)-1-methylpyrrolidin-2-yl]methoxy]-7-(1-naphthyl)-6,8-dihydro-5H-pyrido[3,4-d]pyrimidin-4-yl]-1-(2,3,3-trideuterioprop-2-enoyl)piperazin-2-yl]acetonitrile]", "POC (normalized percent of control; degree of covalent modification of KRas G12C)": "C (“C”>50% POC)"}
{"smiles": "C=C(C(=O)N1CCN(c2nc(OC[C@@H]3CCCN3C)nc3c2CCN(c2cccc(C)c2C)C3)C[C@@H]1CC#N)C(F)(F)F", "note": "[Example 16, 2-((S)-4-(7-(2,3-dimethylphenyl)-2-(((S)-1-methylpyrrolidin-2-yl)methoxy)-5,6,7,8-tetrahydropyrido[3,4-d]pyrimidin-4-yl)-1-(2-(trifluoromethyl)acryloyl)piperazin-2-yl)acetonitrile]", "POC (normalized percent of control; degree of covalent modification of KRas G12C)": "A (“A”≤25% POC)"}
